From paper PMC8119466, “A screen of FDA-approved drugs identifies inhibitors of protein tyrosine phosphatase 4A3 (PTP4A3 or PRL-3)” (Scientific Reports, 2021)
Structures can show the parent of a compound that is named as a salt. Where two headings read alike, the source gives them in different places.

Legend:
Type in all cases: biochemical
recombinant PRL-1 = molecular target: T1, recombinant PRL-1 (Homo sapiens, UniProt Q93096); assay: In vitro phosphatase assay (DiFMUP hydrolysis), PRL-1
T1 construct: 6xHis (N, cleaved yes); made in house; host or cells: E. coli One Shot BL21 Star
T1 sequence (Q93096 1-173): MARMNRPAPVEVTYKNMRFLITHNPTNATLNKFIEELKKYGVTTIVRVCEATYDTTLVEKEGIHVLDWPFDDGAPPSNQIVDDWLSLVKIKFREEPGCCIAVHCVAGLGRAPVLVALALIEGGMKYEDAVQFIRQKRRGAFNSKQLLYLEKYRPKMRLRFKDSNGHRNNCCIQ
Method: Briefly, protein was diluted in reaction buffer and allowed to incubate at 4 °C for 20 min to allow for full reduction of the active site. DiFMUP, drug, and protein were added, and plates were incubated for 20 min at room temperature. Fluorescence intensities were measured on a Cytation 5 plate reader (Biotek) at an EX:360 nm and EM:460 nm. […] Inhibition selectivity for PRLs over a panel of other phosphatases was determined using PhosphataseProfiler (Eurofins, Cat # PP260).

recombinant PRL-2 = molecular target: T2, recombinant PRL-2 (Homo sapiens, UniProt Q12974); assay: In vitro phosphatase assay (DiFMUP hydrolysis), PRL-2;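 further: PRL-2 activity read as DiFMUP hydrolysis after 20 min at room temperature with drug, enzyme first pre-reduced at 4 °C for 20 min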
T2 construct: 6xHis (N, cleaved yes); made in house; host or cells: E. coli One Shot BL21 Star
T2 sequence (Q12974 1-167): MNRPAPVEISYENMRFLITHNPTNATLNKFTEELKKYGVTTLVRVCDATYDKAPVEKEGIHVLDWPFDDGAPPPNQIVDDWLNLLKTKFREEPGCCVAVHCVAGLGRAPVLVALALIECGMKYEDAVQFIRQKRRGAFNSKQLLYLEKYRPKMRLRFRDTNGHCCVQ

recombinant PRL-3 = molecular target: T3, recombinant PRL-3 (Homo sapiens, UniProt O75365); assay: In vitro phosphatase assay (DiFMUP hydrolysis), PRL-3
T3 construct: 6xHis (N, cleaved yes); made in house; host or cells: E. coli One Shot BL21 Star
T3 sequence (O75365 whole entry): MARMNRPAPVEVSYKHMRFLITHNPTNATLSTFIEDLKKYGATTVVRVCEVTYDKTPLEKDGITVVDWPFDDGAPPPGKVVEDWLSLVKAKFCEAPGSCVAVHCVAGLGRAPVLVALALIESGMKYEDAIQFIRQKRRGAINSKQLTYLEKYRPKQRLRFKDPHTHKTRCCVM

[1] = FDA-approved drug screen, compared to DMSO
[2] = FDA-approved drug screen, activity compared to DMSO

| Compound | % Phosphatase Activity (compared to DMSO) PRL-1 (recombinant PRL-1; [1]) [%] | % Phosphatase Activity (compared to DMSO) PRL-2 (recombinant PRL-2; [1]) [%] | % Phosphatase Activity (compared to DMSO) PRL-3 (recombinant PRL-3; [1]) [%] | other results |
| --- | --- | --- | --- | --- |
| Oc1c(Cl)cc(Cl)c(Cl)c1Cc1c(O)c(Cl)cc(Cl)c1Cl [Hexachlorophene, reference compound] | -2.83 | -9 | -4 | IC50 (recombinant PRL-1; 2.5 µM protein, DiFMUP at KM, read-out: Calculated IC50, PRL-1 phosphatase activity): 31 ± 4 µM; IC50 (recombinant PRL-2; 2.5 µM protein, DiFMUP at KM, read-out: Calculated IC50, PRL-2 phosphatase activity): 35 ± 10 µM; IC50 (recombinant PRL-3; 2.5 µM protein, DiFMUP at KM, read-out: Calculated IC50, PRL-3 phosphatase activity): 13 ± 1 µM |
| CC(=O)c1c(C)c2cnc(Nc3ccc(N4CCNCC4)cn3)nc2n(C2CCCC2)c1=O.Cl [Palbociclib (PD-0332991) HCl] | 68 | 61 | 102 | – |
| CC(=O)S[C@@H]1CC2=CC(=O)CC[C@]2(C)[C@H]2CC[C@@]3(C)[C@@H](CC[C@@]34CCC(=O)O4)[C@H]12 [Spironolactone] | – | – | – | % Phosphatase Activity (compared to DMSO) PRL-1 (recombinant PRL-1; [2]): 84%; % Phosphatase Activity (compared to DMSO) PRL-2 (recombinant PRL-2; [2]): 87%; % Phosphatase Activity (compared to DMSO) PRL-3 (recombinant PRL-3; [2]): 68% |
| CC(O)C(=O)O.CN1CCN(c2ccc3nc(-c4c(N)c5c(F)cccc5[nH]c4=O)[nH]c3c2)CC1 [Dovitinib (TKI258) Lactate] | 86 | 70 | 85 | – |
| Cc1ncc([N+](=O)[O-])n1CC(O)CCl (stereo not drawn) [Ornidazole] | 104 | 102 | 84 | – |
| O=C1CC2(CCCC2)CC(=O)N1CCCCN1CCN(c2ncccn2)CC1 [Buspirone HCl] | 89 | 91 | 75 | – |
| CCN(CC)CCOCCOC(=O)C(CC)(CC)c1ccccc1.O=C(O)CC(O)(CC(=O)O)C(=O)O [Oxeladin Citrate] | 90 | 88 | 89 | – |
| CCCCc1oc2ccccc2c1C(=O)c1cc(I)c(OCCN(CC)CC)c(I)c1 [Amiodarone HCl] | – | – | – | % Phosphatase Activity (compared to DMSO) PRL-1 (recombinant PRL-1): 97%; % Phosphatase Activity (compared to DMSO) PRL-2 (recombinant PRL-2): 117%; % Phosphatase Activity (compared to DMSO) PRL-3 (recombinant PRL-3): 102% |
| CN1CCC(=C2c3ccccc3CCc3cccnc32)CC1 [Azatadine dimaleate] | 103 | 108 | 84 | – |
| O=C(O)c1cc(-c2ccc(F)cc2F)ccc1O [Diflunisal] | 91 | 87 | 85 | – |
| CC(=O)OCC(=O)[C@@]12N=C(C)O[C@@H]1C[C@H]1[C@@H]3CCC4=CC(=O)C=C[C@]4(C)[C@H]3[C@@H](O)C[C@@]12C [Deflazacort] | 90 | 102 | 103 | – |
| O=C1c2cccc(O)c2C(=O)c2c(O)cccc21 [Danthron] | 96 | 96 | 78 | – |
| Cc1ncc(CO)c(CO)c1O [Pyridoxine HCl] | 100 | 102 | 91 | – |
| COc1ccccc1OCC(O)CN1CCN(CC(=O)Nc2c(C)cccc2C)CC1.Cl.Cl (stereo not drawn) [Ranolazine 2HCl] | 107 | 99 | 97 | – |
| CN(C)CCOC(c1ccccc1)c1ccccc1 [Diphenhydramine HCl] | 113 | 108 | 111 | – |
| O=C1C(CC[S+]([O-])c2ccccc2)C(=O)N(c2ccccc2)N1c1ccccc1 (racemic) [(+/-)-Sulfinpyrazone] | 88 | 95 | 82 | – |
| Cc1c(C(=O)Nc2ccc(N3C[C@@H](C)O[C@@H](C)C3)nc2)cccc1-c1ccc(OC(F)(F)F)cc1 [LDE225 (NVP-LDE225,Erismodegib)] | 97 | 111 | 83 | – |
| COc1cccc2c1C(=O)c1c(O)c3c(c(O)c1C2=O)C[C@@](O)(C(=O)CO)C[C@@H]3O[C@H]1C[C@H](N)[C@@H](O)[C@H](C)O1 [Epirubicin HCl] | 78 | 90 | 58 | – |
| OC(CNCC(O)C1CCc2cc(F)ccc2O1)C1CCc2cc(F)ccc2O1 (stereo not drawn) [Nebivolol] | 105 | 81 | 87 | – |

| Compound | % Phosphatase Activity (compared to DMSO) PRL-1 (recombinant PRL-1; [1]) [%] | % Phosphatase Activity (compared to DMSO) PRL-2 (recombinant PRL-2; [1]) [%] | % Phosphatase Activity (compared to DMSO) PRL-3 (recombinant PRL-3; [1]) [%] | other results |
| --- | --- | --- | --- | --- |
| NC(=O)OCC(COC(N)=O)c1ccccc1 [Felbamate] | 103 | 97 | 71 | – |
| CCCCCCNC(=O)n1cc(F)c(=O)[nH]c1=O [Carmofur] | 89 | 95 | 73 | – |
| COc1cc2nc(N3CCN(C(=O)C4CCCO4)CC3)nc(N)c2cc1OC (stereo not drawn) [Terazosin] | – | – | – | % Phosphatase Activity (compared to DMSO) PRL-1 (recombinant PRL-1; [2]): 595%; % Phosphatase Activity (compared to DMSO) PRL-2 (recombinant PRL-2; [2]): 423%; % Phosphatase Activity (compared to DMSO) PRL-3 (recombinant PRL-3; [2]): 448% |
| NC(=O)C[S@@+]([O-])C(c1ccccc1)c1ccccc1 [Armodafinil] | 94 | 90 | 73 | – |
| Cn1c([N+](=O)[O-])cnc1COC(N)=O [Ronidazole] | 86 | 95 | 62 | – |
| O=c1[nH]c(=O)n(C2CCCO2)cc1F (stereo not drawn) [FT-207 (NSC 148958)] | 115 | 95 | 73 | – |
| C[N+](C)(CCOc1ccccc1)Cc1ccccc1.O=C([O-])c1cc2ccccc2cc1O [Bephenium Hydroxynaphthoate] | 108 | 103 | 92 | – |
| CC(C)NC[C@H](O)COc1ccc(CCOCC2CC2)cc1.Cl [Levobetaxolol HCl] | – | – | – | % Phosphatase Activity (compared to DMSO) PRL-1 (recombinant PRL-1): 100%; % Phosphatase Activity (compared to DMSO) PRL-2 (recombinant PRL-2): 99%; % Phosphatase Activity (compared to DMSO) PRL-3 (recombinant PRL-3): 69% |
| C[N+](C)(C)CCO.[Cl-] [Choline Chloride] | – | – | – | % Phosphatase Activity (compared to DMSO) PRL-1 (recombinant PRL-1): 99%; % Phosphatase Activity (compared to DMSO) PRL-2 (recombinant PRL-2): 106%; % Phosphatase Activity (compared to DMSO) PRL-3 (recombinant PRL-3): 75% |
| C[C@H](NC(=O)C(=O)Nc1ccccc1C(C)(C)C)C(=O)N[C@@H](CC(=O)O)C(=O)COc1c(F)c(F)cc(F)c1F [Emricasan] | 95 | 72 | 95 | – |
| Nc1ccc(S(=O)(=O)NC(=O)c2ccccc2)cc1 [Sulfabenzamide] | – | – | – | % Phosphatase Activity (compared to DMSO) PRL-1 (recombinant PRL-1; [2]): 93%; % Phosphatase Activity (compared to DMSO) PRL-2 (recombinant PRL-2; [2]): 121%; % Phosphatase Activity (compared to DMSO) PRL-3 (recombinant PRL-3; [2]): 83% |
| Cc1cc(=O)[nH]c(=S)[nH]1 [Methylthiouracil] | 110 | 93 | 75 | – |
| COc1cc2c(cc1OC)CN(CCc1ccc(NC(=O)c3cccc4c(=O)c5cccc(OC)c5[nH]c34)cc1)CC2 [Elacridar (GF120918)] | 106 | 104 | 100 | – |
| CCOC(=O)n1ccn(C)c1=S [Carbimazole] | 103 | 114 | 78 | – |
| N#CC[C@H](C1CCCC1)n1cc(-c2ncnc3[nH]ccc23)cn1 [Ruxolitinib (INCB018424)] | 116 | 132 | 66 | – |
| CC/C(=C(\c1ccccc1)c1ccc(OCCN(C)C)cc1)c1ccccc1 [Tamoxifen Citrate] | – | – | – | % Phosphatase Activity (compared to DMSO) PRL-1 (recombinant PRL-1; [2]): 84%; % Phosphatase Activity (compared to DMSO) PRL-2 (recombinant PRL-2; [2]): 91%; % Phosphatase Activity (compared to DMSO) PRL-3 (recombinant PRL-3; [2]): 95% |
| COC1=CC(=O)C[C@@H](C)[C@]12Oc1c(Cl)c(OC)cc(OC)c1C2=O [Griseofulvin] | 112 | 125 | 90 | – |
| CO[C@H]1C[C@@H]2CC[C@@H](C)[C@@](O)(O2)C(=O)C(=O)N2CCCC[C@H]2C(=O)O[C@H]([C@H](C)C[C@@H]2CC[C@@H](OC(=O)C(C)(CO)CO)[C@H](OC)C2)CC(=O)[C@H](C)/C=C(\C)[C@@H](O)[C@@H](OC)C(=O)[C@H](C)C[C@H](C)/C=C/C=C/C=C/1C [Temsirolimus (CCI-779, NSC 683864)] | – | – | – | % Phosphatase Activity (compared to DMSO) PRL-1 (recombinant PRL-1; [2]): 96%; % Phosphatase Activity (compared to DMSO) PRL-2 (recombinant PRL-2; [2]): 111%; % Phosphatase Activity (compared to DMSO) PRL-3 (recombinant PRL-3; [2]): 91% |
